Columns and labels:
Aphis craccivora = assay: Efficacy test against Aphis craccivora (spray on black-eyed pea plants); type: in vivo; settings: in Vigna unguiculata, 96 h, sprayed on black-eyed pea plants, nymphs, 4 days after spraying, read-out: insect mortality rate
Procedure: (§1) 5 parts of the compound of the present invention, 93.6 parts of dimethylformamide and 1.4 parts of polyoxyethylene alkyl aryl ether were mixed and dissolved to prepare Emulsion (I) including 5% of an active ingredient.
(§2) An insect mortality rate was calculated by the numerical equation shown below.
(§3) Insect mortality rate (%)={(Number of dead insects)/(Number of sample insects)}×100
Black-eyed pea plants were raised in No. 3 pots and the primary leaves were inoculated with nymphs of Aphis craccivora. Emulsion (I) was diluted with water so that the concentration of the compound of the present invention was 125 ppm. Subsequently, the aforementioned diluted liquid was sprayed on the black-eyed pea plants on which the nymphs of Aphis craccivora were parasitic. The aforementioned black-eyed pea plants were then placed in a thermostatic chamber with a temperature of 25° C. and humidity of 60%. Mortality was investigated 4 days after spraying was carried out, and the insect mortality rate of Aphis craccivora was calculated. The test was performed twice.

Plutella xylostella = assay: Efficacy test against Plutella xylostella (cabbage leaf dip); type: in vivo; settings: foliar, 72 h, cabbage leaves soaked 30 seconds, second-instar larvae, 3 days after inoculation, read-out: insect mortality rate
Procedure: as §1, §2, §3
Emulsion (I) was diluted with water so that the concentration of the compound of the present invention was 125 ppm. Cabbage leaves were soaked in the diluted liquid for 30 seconds. Subsequently, the cabbage leaves were put on Petri dishes, followed by inoculating 5 second-instar larvae of Plutella xylostella. The Petri dishes were placed in a thermostatic chamber at a temperature of 25° C. and humidity of 60%. Mortality was investigated 3 days after inoculation, and the insect mortality rate was calculated. The test was performed twice.

Phyllotreta striolata = assay: Efficacy test against Phyllotreta striolata (spray on bok-choi seedlings); type: in vivo; settings: 168 h, sprayed on bok-choi seedlings, adults, 7 days after inoculation, read-out: insect mortality rate
Procedure: as §1, §2, §3
Emulsion (I) was diluted with water so that the concentration of the compound of the present invention was 125 ppm, to prepare a diluted liquid for testing. The aforementioned diluted liquid was sprayed on bok-choi seedlings (7th major leaf-development period) planted in No. 3 pots. After the bok-choi seedlings were subjected to air-drying, the seedlings were placed in plastic cups, followed by inoculating 10 adult Phyllotreta striolata. The plastic cups were stored in a thermostatic chamber at a temperature of 25° C. and humidity of 65%. Mortality was investigated 7 days after inoculation, and the insect mortality rate was calculated. The test was performed twice.

Nilaparvata lugens = assay: Efficacy test against Nilaparvata lugens (rice seedling dip); type: in vivo; settings: 168 h, rice seedlings soaked 30 seconds, second-instar larvae, 7 days after inoculation, read-out: insect mortality rate
Procedure: as §1, §2, §3
Emulsion (I) was diluted with water so that the concentration of the compound of the present invention was 125 ppm. Rice seedlings were soaked in the diluted liquid for 30 seconds, and subjected to air-drying. Subsequently, the rice seedlings were placed in plastic cases, followed by inoculating 5 second-instar larvae of Nilaparvata lugens. The plastic cases were placed in a thermostatic chamber at a temperature of 25° C. and humidity of 65%. Mortality was investigated 7 days after inoculation, and the insect mortality rate was calculated. The test was performed twice.

Mythimna separata = assay: Efficacy test against Mythimna separata (treated artificial feed); type: in vivo; settings: 1 μl of Emulsion (I) (5% active ingredient) in 0.8 g artificial feed; second-instar larvae; 25° C.; fifth day
Procedure: as §1
For the control, Emulsion (II) was prepared by mixing and dissolving 93.6 parts of dimethylformamide and 1.4 parts of polyoxyethylene alkyl aryl ether.
as §2, §3
0.8 g of a commercially available artificial feed (Insecta LFS, manufactured by Nosan Corporation) and 1 μl of Emulsion (I) were mixed thoroughly. Thereby, a test feed was obtained.
The test feed was placed in an amount of 0.2 g in each of the treatment areas of a plastic test container (volume: 1.4 ml). Subsequently, two second-instar larvae of Mythimna separata were inoculated into each treatment area, and the test container was sealed with a plastic lid in order to prevent the larvae from escaping. The sealed container was placed in a thermostatic chamber at 25° C., and the insect mortality rate and the amount of feed consumed were determined on the fifth day. The test was performed twice.
As the control areas, the insect mortality rate and the amount of feed consumed were determined in the same manner as that described in Test Example 1, with the exception of replacing Emulsion (I) with Emulsion (II).

With `CCS(=O)(=O)c1cnc(-c2ncccn2)nc1-c1nc2cc(C(F)(F)F)cnc2n1C` [A-2, 2-(5-(ethylsulfonyl)-[2,2′-bipyrimidin]-4-yl)-3-methyl-6-(trifluoromethyl)-3H-imidazo[4,5-b]pyridine] as the compound, how does the mortality at 125 ppm (Aphis craccivora) read?
The mortality at 125 ppm was ≥ 80%.

What about the mortality at 125 ppm (Plutella xylostella) of the same compound?
Its mortality at 125 ppm is ≥ 80%.

What about the mortality at 125 ppm (Phyllotreta striolata) of the same compound?
The mortality at 125 ppm was ≥ 80%.

What about the mortality at 125 ppm (Nilaparvata lugens) of the same compound?
Its mortality at 125 ppm is ≥ 80%.

And the “insect mortality rate or amount of feed consumed relative to control area” value (Mythimna separata)?
Its value is “mortality rate against Mythimna separata was 100%, or the amount of feed consumed was 10% or less”.

For `CCS(=O)(=O)c1cnc(-c2ncn(C)n2)nc1-c1nc2cc(C(F)(F)F)cnc2n1C` [A-5], which “insect mortality rate or amount of feed consumed relative to control area” value (Mythimna separata) is on record?
The value was “mortality rate against Mythimna separata was 100%, or the amount of feed consumed was 10% or less”.

Which melting point does the source give for `CCS(=O)(=O)c1cnc(-c2ncccn2)nc1-c1nc2cc(SC(F)(F)F)ccc2o1` [A-7, 2-(5-(ethylsulfonyl)-[2,2′-bipyrimidin]-4-yl)-5-((trifluoromethyl)thio)benzo[d]oxazole] here?
The melting point was 223 to 225 °C.

For `CCS(=O)(=O)c1cnc(-c2ncccn2)nc1-c1nc2cc([S+]([O-])C(F)(F)F)ccc2o1` (stereo not drawn) [A-8, 2-(5-(ethylsulfonyl)-[2,2′-bipyrimidin]-4-yl)-5-((trifluoromethyl)sulfinyl)benzo[d]oxazole], which melting point is on record?
The melting point was 192 to 195 °C.

Which melting point does the source give for `CCS(=O)(=O)c1cnc(-c2ncccn2)nc1-c1nc2cc(S(=O)(=O)C(F)(F)F)ccc2o1` [A-9, 2-(5-(ethylsulfonyl)-[2,2′-bipyrimidin]-4-yl)-5-((trifluoromethyl)sulfonyl)benzo[d]oxazole] here?
Its melting point is 118 to 124 °C.

With `CCS(=O)(=O)c1cnc(N)nc1-c1nc2cc(SC(F)(F)F)ccc2o1` [A-10] as the compound, how does the “insect mortality rate or amount of feed consumed relative to control area” value (Mythimna separata) read?
Its value is “mortality rate against Mythimna separata was 100%, or the amount of feed consumed was 10% or less”.

With `CCS(=O)(=O)c1cnc(-n2ncnc2N)nc1-c1nc2cc(C(F)(F)F)cnc2n1C` [A-12, 1-(5-(ethylsulfonyl)-4-(3-methyl-6-(trifluoromethyl)-3H-imidazo[4,5-b]pyridin-2-yl)pyrimidin-2-yl)-1H-1,2,4-triazol-5-amine] as the compound, how does the mortality at 125 ppm (Plutella xylostella) read?
Its mortality at 125 ppm is ≥ 80%.

And the mortality at 125 ppm (Phyllotreta striolata)?
The mortality at 125 ppm was ≥ 80%.

And the mortality at 125 ppm (Nilaparvata lugens)?
The mortality at 125 ppm was ≥ 80%.

And the “insect mortality rate or amount of feed consumed relative to control area” value (Mythimna separata)?
The value was “mortality rate against Mythimna separata was 100%, or the amount of feed consumed was 10% or less”.

For `CCS(=O)(=O)c1cnc(N)nc1-c1nc2cc(C(F)(F)F)cnc2n1C` [A-13], which “insect mortality rate or amount of feed consumed relative to control area” value (Mythimna separata) is on record?
The value was “mortality rate against Mythimna separata was 100%, or the amount of feed consumed was 10% or less”.

With `CCS(=O)(=O)c1cnc(NC)nc1-c1nc2cc(C(F)(F)F)cnc2n1C` [A-16] as the compound, how does the “insect mortality rate or amount of feed consumed relative to control area” value (Mythimna separata) read?
The value was “mortality rate against Mythimna separata was 100%, or the amount of feed consumed was 10% or less”.

Which “insect mortality rate or amount of feed consumed relative to control area” value (Mythimna separata) does the source give for `CCS(=O)(=O)c1cnc(N(C)C)nc1-c1nc2cc(C(F)(F)F)cnc2n1C` [A-17] here?
Its value is “mortality rate against Mythimna separata was 100%, or the amount of feed consumed was 10% or less”.

Which “insect mortality rate or amount of feed consumed relative to control area” value (Mythimna separata) does the source give for `CCS(=O)(=O)c1cnc(-n2cccn2)nc1-c1nc2cc(C(F)(F)F)cnc2n1C` [A-20] here?
The value was “mortality rate against Mythimna separata was 100%, or the amount of feed consumed was 10% or less”.

With `CCS(=O)(=O)c1cnc(OC)nc1-c1nc2cc(C(F)(F)F)cnc2n1C` [A-23] as the compound, how does the “insect mortality rate or amount of feed consumed relative to control area” value (Mythimna separata) read?
The value was “mortality rate against Mythimna separata was 100%, or the amount of feed consumed was 10% or less”.

For `CCS(=O)(=O)c1cnc(NN)nc1-c1nc2cc(C(F)(F)F)cnc2n1C` [A-24, 2-(5-(ethylsulfonyl)-2-hydrazineylpyrimidin-4-yl)-3-methyl-6-(trifluoromethyl)-3H-imidazo[4,5-b]pyridine], which melting point is on record?
The melting point was 227 to 229 °C.

Which “insect mortality rate or amount of feed consumed relative to control area” value (Mythimna separata) does the source give for `CCS(=O)(=O)c1cnc(-n2ccc(N)n2)nc1-c1nc2cc(C(F)(F)F)cnc2n1C` [A-25] here?
The value was “mortality rate against Mythimna separata was 100%, or the amount of feed consumed was 10% or less”.

Which mortality at 125 ppm (Aphis craccivora) does the source give for `CCOC(=O)c1cnn(-c2ncc(S(=O)(=O)CC)c(-c3nc4cc(C(F)(F)F)cnc4n3C)n2)c1N` [A-26, ethyl 5-amino-1-(5-(ethylsulfonyl)-4-(3-methyl-6-(trifluoromethyl)-3H-imidazo[4,5-b]pyridin-2-yl)pyrimidin-2-yl)-1H-pyrazole-4-carboxylate] here?
The mortality at 125 ppm was ≥ 80%.

What about the mortality at 125 ppm (Plutella xylostella) of the same compound?
Its mortality at 125 ppm is ≥ 80%.

What about the mortality at 125 ppm (Phyllotreta striolata) of the same compound?
Its mortality at 125 ppm is ≥ 80%.

What about the “insect mortality rate or amount of feed consumed relative to control area” value (Mythimna separata) of the same compound?
Its value is “mortality rate against Mythimna separata was 100%, or the amount of feed consumed was 10% or less”.

For `CCS(=O)(=O)c1cnc(-n2nccc2N)nc1-c1nc2cc(C(F)(F)F)cnc2n1C` [A-27, 1-(5-(ethylsulfonyl)-4-(3-methyl-6-(trifluoromethyl)-3H-imidazo[4,5-b]pyridin-2-yl)pyrimidin-2-yl)-1H-pyrazol-5-amine], which melting point is on record?
The melting point was 247 to 249 °C.

Which “insect mortality rate or amount of feed consumed relative to control area” value (Mythimna separata) does the source give for `CCS(=O)(=O)c1cnc(NCCN)nc1-c1nc2cc(C(F)(F)F)cnc2n1C` [A-28] here?
The value was “mortality rate against Mythimna separata was 100%, or the amount of feed consumed was 10% or less”.

Reference: patent US20210002263A1, “HETEROARYLPYRIMIDINE COMPOUND AND FORMULATION FOR CONTROLLING HARMFUL ORGANISMS” (Nippon Soda Co., Ltd., priority 2018, published 2021)
